The values below come from patent publication US10538497B2, “Compounds as indoleamine 2,3-dioxygenase inhibitors” (Merck Sharp & Dohme Corp., priority 2015, dated 2020).

The structures appear in SMILES notation.

Test [1] has as its target T1, IDO1 (Homo sapiens (Human), UniProt P14902). Briefly: IDO1 Cellular Assay in Hela Cells Stimulated with IFNγ. The following applies: Hela cells stimulated with IFNγ 100 ng/mL; read-out: IDO1 HELA Cell Assay, IC50. The format is cell-based.
The target in test [2] is T1, IDO1. Briefly: IDO1 Cellular Assay in Frozen HEK293 Cells Transiently Transfected with Human IDO1. Type of test: cell-based. The following applies: HEK293 cells transiently transfected with human IDO1; read-out: IDO1 HEK293 Cell Assay, IC50. On the procedure:
IDO1 Cellular Assay in Frozen HEK293 Cells Transiently Transfected with Human IDO1
HEK293 cells were cultured in complete HEK293 culture medium (90% DMEM, 10% heat-inactivated fetal bovine serum). When reaching sub-confluent, the cells were trypsinized and neutralized with complete medium. […] Flag-IDO1 plasmid was added to the cell suspension at a concentration of 100 μg/mL. The cell-plasmid solutions were transferred to the OC-400 processing assembly (Maxcyte), 400 l/unit and the units were placed in a Maxcyte instrument to carry out flow electroporation for transfection. The cells were then transferred to a sterile 24-well cell culture plate to recover for 20-30 min at 37° C. in an incubator with 5% CO2.
Frozen HEK293/IDO1 and HEK293 WT cells were thawed and transferred into HEK293 assay medium (99% complete HEK293 culture medium, 1% Pen/Strep) with 20 mL medium/vial of cells. The cells were spun down at 250 g in a table top centrifuge for 5 min and suspended in same volume of HEK293 assay medium. […] Sterile L-tryptophan were added to the cells with final concentration of 300 μM.
HEK293/IDO1 and HEK293 WT cells were dispensed to the respective wells of 384-well assay plates containing the compounds. The plates were incubated for about 28-30 h at a 37° C., 5% CO2 incubator. […] The plates were centrifuged for 1 min at 200×g. The resulting fluorescence was measured in a Spectramax plate reader (Molecular Devices) with a 400 nm excitation filter and a 510 nm emission filter.

Test [3] deals with T1, IDO1. In words: IDO1 Enzyme Assay. The following applies: read-out: IDO1 Enzyme Assay, IC50; HIS-tagged recombinant IDO1, 40 nM.

T1 sequence (P14902 whole entry): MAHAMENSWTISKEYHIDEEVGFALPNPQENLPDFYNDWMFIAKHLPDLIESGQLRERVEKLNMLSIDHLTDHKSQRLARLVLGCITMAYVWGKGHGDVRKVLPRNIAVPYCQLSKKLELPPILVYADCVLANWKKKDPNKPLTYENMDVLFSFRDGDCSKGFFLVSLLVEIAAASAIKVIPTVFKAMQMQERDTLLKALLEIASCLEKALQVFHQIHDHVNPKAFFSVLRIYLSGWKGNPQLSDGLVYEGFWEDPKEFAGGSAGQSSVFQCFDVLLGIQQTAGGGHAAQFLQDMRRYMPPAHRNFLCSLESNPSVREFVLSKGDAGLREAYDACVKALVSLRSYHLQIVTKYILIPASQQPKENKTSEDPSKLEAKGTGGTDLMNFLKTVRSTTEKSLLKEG

As usually defined, the IC50 is the midpoint of a concentration-inhibition curve. As to `NS(=O)(=O)NCCSc1nsnc1/C(=N/O)Nc1ccc(F)c(Br)c1` [Example 47, N-(3-bromo-4-fluorophenyl)-N′-hydroxy-4-((2-(sulfamoylamino)ethyl)thio)-1,2,5-thiadiazole-3-carboximidamide], the values for the IC50 in test [1], in test [2] and in test [3] were 0.245 µM, 0.29 µM and 0.439 µM, respectively.
For `COC(=O)[C@@H](N)CSc1nonc1/C(=N/O)Nc1ccc(F)c(Br)c1` [Example 48, methyl S-{4-[N-(3-bromo-4-fluorophenyl)-N′-hydroxycarbamimidoyl]-1,2,5-oxadiazol-3-yl}-L-cisteinate], in that order: 0.648 µM, 0.226 µM and 0.17 µM.
For `CC(=O)NCCSc1nonc1/C(=N/O)Nc1ccc(F)c(C(F)(F)F)c1` [Example 49, N-{2-[(4-{N-[4-fluoro-3-(trifluoromethyl)phenyl]-N′-hydroxycarbamimidoyl}-1,2,5-oxadiazol-3-yl)sulfanyl]ethyl}acetamide], the values for the half-maximal inhibitory concentration (IC50) in test [1], in test [2] and in test [3] were 0.0119 µM, 0.0317 µM and 0.0653 µM, respectively.
The corresponding values for `OCCSc1nonc1/C(=N/O)Nc1ccc(F)c(C(F)(F)F)c1` [Example 50, N-[4-fluoro-3-(trifluoromethyl)phenyl]-N′-hydroxy-4-[(2-hydroxyethyl)sulfanyl]-1,2,5-oxadiazole-3-carboximidamide] are 0.0457 µM, 0.0675 µM and 0.0995 µM.
`CC(=O)NCCSc1nonc1/C(=N/O)Nc1ccc(F)c(C)c1` [Example 51, N-[2-({4-[N-(4-fluoro-3-methylphenyl)-N′-hydroxycarbamimidoyl]-1,2,5-oxadiazol-3-yl}sulfanyl)ethyl]acetamide]: the values for the IC50 in test [1], in test [2] and in test [3] were 0.0481 µM, 0.106 µM and 0.113 µM, respectively.
Consider `CC(=O)NCCSc1nonc1/C(=N/O)Nc1ccc(F)c(OC(F)(F)F)c1` [Example 52, N-{2-[(4-{N-[4-fluoro-3-(trifluoromethoxy)phenyl]-N′-hydroxycarbamimidoyl}-1,2,5-oxadiazol-3-yl)sulfanyl]ethyl}acetamide], for which the IC50 in test [1] turned out to be 0.144 µM; in test [2], 0.177 µM; in test [3], 0.356 µM.
The corresponding values for `OCCCCCCSc1nonc1/C(=N/O)Nc1ccc(F)c(Br)c1` [Example 53, N-(3-bromo-4-fluorophenyl)-N′-hydroxy-4-[(6-hydroxyhexyl)sulfanyl]-1,2,5-oxadiazole-3-carboximidamide] are 0.683 µM, 0.786 µM and 0.0985 µM.
Consider `CC(C)C(O)CCSc1nonc1/C(=N/O)Nc1ccc(F)c(Br)c1` (stereo not drawn) [Example 54, N-(3-bromo-4-fluorophenyl)-N′-hydroxy-4-[(3-hydroxy-4-methylpentyl)sulfanyl]-1,2,5-oxadiazole-3-carboximidamide], for which the IC50 was 0.2 µM in test [1], 0.204 µM in test [2] and 0.33 µM in test [3].
The corresponding values for `CCNc1c(NCCSc2nonc2/C(=N/O)Nc2ccc(F)c(Br)c2)c(=O)c1=O` [Example 55, N-(3-bromo-4-fluorophenyl)-4-[(2-{[2-(ethylamino)-3,4-dioxocyclobut-1-en-1-yl]amino}ethyl)sulfanyl]-N′-hydroxy-1,2,5-oxadiazole-3-carboximidamide] are 0.0678 µM, 0.261 µM and 0.0203 µM.
The corresponding values for `N=C(N)NCCSc1nonc1/C(=N/O)Nc1ccc(F)c(Br)c1` [Example 56, N-(3-bromo-4-fluorophenvl)-4-[(2-carbamimidamidoethyl)sulfanyl]-N′-hydroxy-1,2,5-oxadiazole-3-carboximidamide] are 0.0943 µM, 0.212 µM and 0.0415 µM.
For `NC(CCSc1nonc1/C(=N/O)Nc1ccc(F)c(Br)c1)C(=O)O` (stereo not drawn) [Example 57, S-{4-[N-(3-bromo-4-fluorophenyl)-N′-hydroxycarbamimidoyl]-1,2,5-oxadiazol-3-yl}homocysteine], in that order: 0.131 µM, 0.361 µM and 0.0294 µM.
Regarding `CC(=O)NCCSc1nonc1/C(=N/O)Nc1cc(Br)c(F)cc1F` [Example 58, N-[2-({4-[N-(5-bromo-2,4-difluorophenyl)-N′-hydroxycarbamimidoyl]-1,2,5-oxadiazol-3-yl}sulfanyl)ethyl]acetamide], the values for the half-inhibitory concentration (IC50) in test [1], in test [2] and in test [3] were 0.153 µM, 0.29 µM and 0.136 µM, respectively.
For `CC(=O)NCCSc1nonc1/C(=N/O)Nc1cccc(Br)c1` [Example 59, N-[2-({4-[N-(3-bromophenyl)-N′-hydroxycarbamimidoyl]-1,2,5-oxadiazol-3-yl}sulfanyl)ethyl]acetamide], the IC50 in test [1] was found to be 0.0224 µM; in test [2], 0.0206 µM; in test [3], 0.0232 µM.
`CN/C(=C\[N+](=O)[O-])NCCSc1nonc1C(=NO)Nc1ccc(F)c(Br)c1` [Example 60, N-(3-bromo-4-fluorophenyl)-N′-hydroxy-4-[(2-{[(E)-1-(methylamino)-2-nitroethenyl]amino}ethyl)sulfanyl]-1,2,5-oxadiazole-3-carboximidamide]: the IC50 in test [1] turned out to be 0.153 µM; in test [2], 0.176 µM; in test [3], 0.0365 µM.
Consider `O=C(CSc1nonc1/C(=N/O)Nc1ccc(F)c(Br)c1)Nc1ccccc1` [Example 61, 2-({4-[N-(3-bromo-4-fluorophenyI)-N′-hydroxycarbamimidoyl]-1,2,5-oxadiazol-3-yl}sulfanyl)-N-phenylacetamide], for which the IC50 in test [1] was determined as 0.0775 µM; in test [2], 0.171 µM; in test [3], 0.0943 µM.
Regarding `CCc1cccc(N/C(=N\O)c2nonc2SCCNC(C)=O)c1` [Example 65, N-[2-({4-[N-(3-ethylphenyl)-N′-hydroxycarbamimidoyl]-1,2,5-oxadiazol-3-yl}sulfanyl)ethyl]acetamide], the IC50 in test [1] turned out to be 0.0526 µM; in test [2], 0.0745 µM; in test [3], 0.0594 µM.
The corresponding values for `O/N=C(\Nc1ccc(F)c(Br)c1)c1nonc1SC1CCNC1` (stereo not drawn) [Example 66, N-(3-bromo-4-fluorophenyl)-N′-hydroxy-4-(pyrrolidin-3-ylsulfanyl)-1,2,5-oxadiazole-3-carboximidamide] are 0.0923 µM, 0.0677 µM and 0.0283 µM.
In the case of `N#CCSc1nonc1/C(=N/O)Nc1ccc(F)c(Br)c1` [Example 67, N-(3-bromo-4-fluorophenyl)-4-[(cyanomethyl)sulfanyl]-N′-hydroxy-1,2,5-oxadiazole-3-carboximidamide], the IC50 in test [1] was 0.0145 µM; in test [2], 0.0177 µM; in test [3], 0.0393 µM.
The corresponding values for `N#CC1(CSc2nonc2/C(=N/O)Nc2ccc(F)c(Br)c2)CC1` [Example 68, N-(3-bromo-4-fluorophenvl)-4-{[(1-cyanocyclopropyl)methyl]sulfanyl}-N′-hydroxy-1,2,5-oxadiazole-3-carboximidamide] are 0.0772 µM, 0.107 µM and 0.0962 µM.
On to `CNC(=O)CCSc1nonc1/C(=N/O)Nc1ccc(F)c(Br)c1` [Example 70, 3-({4-[N-(3-bromo-4-fluorophenyl)-N′-hydroxycarbamimidoyl]-1,2,5-oxadiazol-3-yl}sulfanyl)-N-methylpropanamide], for which the IC50 in test [1] stood at 0.0209 µM; in test [2], 0.0262 µM; in test [3], 0.0279 µM.
Consider `NS(=O)(=O)c1ccc(CCSc2nonc2/C(=N/O)Nc2ccc(F)c(Br)c2)cc1` [Example 71, N-(3-bromo-4-fluorophenyl)-N′-hydroxy-4-{[2-(4-sulfamoylphenyl)ethyl]sulfanyl}-1,2,5-oxadiazole-3-carboximidamide], for which the concentration for half-maximal inhibition (IC50) in test [1] came to 0.0912 µM; in test [2] it was 0.109 µM; in test [3] it was 0.407 µM.
The corresponding values for `O/N=C(\Nc1ccc(F)c(Br)c1)c1nonc1SC1CCNCC1` [Example 72, N-(3-bromo-4-fluorophenyl)-N′-hydroxy-4-(piperidin-4-ylsulfanyl)-1,2,5-oxadiazole-3-carboximidamide] are 0.283 µM, 0.231 µM and 0.0878 µM.
As to `Nc1c(NCCSc2nonc2/C(=N/O)Nc2ccc(F)c(Br)c2)c(=O)c1=O` [Example 73, 4-({2-[(2-amino-3,4-dioxocyclobut-1-en-1-yl)amino]ethyl}sulfanyl)-N-(3-bromo-4-fluorophenyl)-N′-hydroxy-1,2,5-oxadiazole-3-carboximidamide], the concentration for half-maximal inhibition (IC50) in test [1] was determined as 0.106 µM; in test [2], 0.376 µM; in test [3], 0.0272 µM.
Turning to `O/N=C(\Nc1ccc(F)c(Br)c1)c1nonc1SCC(O)c1ccccc1` (stereo not drawn) [Example 74, N-(3-bromo-4-fluorophenyl)-N′-hydroxy-4-[(2-hydroxy-2-phenylethyl)sulfanyl]-1,2,5-oxadiazole-3-carboximidamide], the IC50 was 0.388 µM in test [1], 0.579 µM in test [2] and 0.503 µM in test [3].
